What was measured:
PCSK9 [1] = molecular target: T1, PCSK9 (Homo sapiens, UniProt Q8NBP7, G670E/V474I); test: cell-based
Target sequence in this assay (Q8NBP7 31-152): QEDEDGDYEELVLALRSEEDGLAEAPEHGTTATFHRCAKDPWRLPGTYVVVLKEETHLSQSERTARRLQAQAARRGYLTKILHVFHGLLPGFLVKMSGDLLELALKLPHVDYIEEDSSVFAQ
Target sequence in this assay (Q8NBP7 153-692 V474I/G670E): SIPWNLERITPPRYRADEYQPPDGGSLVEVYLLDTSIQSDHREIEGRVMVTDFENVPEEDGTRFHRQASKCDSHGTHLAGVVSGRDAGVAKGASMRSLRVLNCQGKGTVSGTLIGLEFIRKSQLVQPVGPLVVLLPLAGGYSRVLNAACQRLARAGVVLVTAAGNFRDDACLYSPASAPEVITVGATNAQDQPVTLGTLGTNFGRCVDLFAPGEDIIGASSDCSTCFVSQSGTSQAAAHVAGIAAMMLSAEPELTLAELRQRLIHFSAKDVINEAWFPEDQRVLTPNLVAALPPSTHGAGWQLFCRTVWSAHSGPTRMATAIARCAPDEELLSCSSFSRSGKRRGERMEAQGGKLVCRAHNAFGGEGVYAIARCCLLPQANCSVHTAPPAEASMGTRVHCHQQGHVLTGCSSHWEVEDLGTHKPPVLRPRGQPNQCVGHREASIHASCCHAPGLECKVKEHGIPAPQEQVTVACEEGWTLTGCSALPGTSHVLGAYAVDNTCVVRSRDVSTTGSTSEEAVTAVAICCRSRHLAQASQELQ
Source text: This assay measures for PCSK9 antagonist activity based on a test compound's capacity to restore LDL-C uptake in HepG2 cells. The assay is based on exogenous PCSK9 and LDL-C complexed with a pH-sensitive dye. Outside the cells, at neutral pH, the pHrodo Red-LDL is dimly fluorescent but upon LDLR mediated endocytosis it fluoresces brightly. PCSK9 traffics the LDLR to intracellular degradation and reduces uptake of LDL-C. Inhibition of PCSK9 reduces LDLR degradation and the increased LDL-C uptake is quantified by fluorescence microscopy.
Cell medium: MEM supplemented with 10% FBS, 1× NEAA and Sodium Pyruvate
Assay medium: OptiMem supplemented with penicillin/streptomycin
Cells: HepG2 (ATCC #HB-8065)
Cryopreserved HepG2 cells were thawed in assay medium and centrifuged for 5 min at 250 g. Supernatant was discarded and the cell pellet resuspended in cell medium and counted with a Nucleocounter. Cells were again centrifuged 5 min at 250 g and the pellet was resuspended to 500000 cells/mL in assay medium. • 2. 20 μL of above cell mix was dispensed into black pclear TC treated 384 well plates with Multidrop Combi and left at room temperature for 20 minutes. • 3. Plates were incubated at 37° C., 5% CO2 for 24 h
Test compounds were prepared in concentration response in DMSO with a half-log dilution factor in DMSO in Echo 384 LDV plates starting at 10 mM. • 2. 30 nL of above test compounds were dispensed with Echo 655 to cells for a top concentration of 10 μM • 3. […] Plates were incubated at 37° C., 5% CO2 for 24 h
10 μL pHrodo Red-LDL in assay medium was dispensed to cells with Multidrop Combi for 6 μg/mL • 2. Plates were incubated at 37° C., 5% CO2 and imaged with the Incucyte S3 after 4 h and 24 h
Image data was processed using Incucyte 2021, a software to identify cells and red fluorescent intensity. Screener was used to further process data. Data was normalized as % effect of the signal between median values of the on-plate controls of DMSO and 100 nM Evolocumab according to the formula % effect=−100*(x−DMSO)/(Evolocumab−DMSO) where x equals the measured signal. Concentration response data of the normalized values were fitted using a four-parameter logistic fit.

[2] = molecular target: GSK3b (Glycogen synthase kinase-3 beta) (Homo sapiens, UniProt P49841); test: Assay 6 - GSK3b assay (ThermoFisher, FRET Z-Lyte); assay type: biochemical; conditions: geometric mean; ATP Conc: 10.000 μM; read-out: Assay 6 (GSK3B FRET-Z-Lyte CR) GMean IC50 (μM) ATP Conc: 10.000
Protocol: This assay measures the activity of the compounds at GSK3b (Glycogen synthase kinase-3 beta).
The test compounds were screened in 1% DMSO (final) in the well. For 10-point titrations, 3-fold serial dilutions are conducted from the starting concentration of 10 μM.
• Bar-coded Corning, low volume NBS, black 384-well plate • 1. 2.5 μL—4× Test Compound or 100 nL 100× plus 2.4 μL kinase buffer • 2. 5 μL—2× Peptide/Kinase Mixture • 3. 2.5 μL—4× ATP Solution • 4. 30-second plate shake • 5. 60-minute Kinase Reaction incubation at room temperature • 6. 5 μL—Development Reagent Solution • 7. 30-second plate shake • 8. 60-minute Development Reaction incubation at room temperature • 9. Read on fluorescence plate reader and analyse the data
In step 2, the 2× GSK3β (GSK3 beta)/Ser/Thr (Glycogen synthase kinase-3 beta/Serine/Threonine) 09 mixture is prepared in 50 mM HEPES (4-(2-hydroxyethyl)-1-piperazineethanesulfonic acid) pH 7.5, 0.01% BRIJ-35, 10 mM MgCl2, 1 mM EGTA (egtazic acid). The final 10 μL Kinase Reaction consists of 0.22-0.92 ng GSK3β (GSK3 beta) and 2 μM Ser/Thr 09 in 50 mM HEPES pH 7.5, 0.01% BRIJ-35, 10 mM MgCl2, 1 mM EGTA.
In step 3 the ATP Solution is diluted to a 4× working concentration in Kinase Buffer (50 mM HEPES pH 7.5, 0.01% BRIJ-35, 10 mM MgCl2, 1 mM EGTA).
In Step 6 the Development Reagent is diluted 1:512 in Development Buffer (10× Novel PKC Lipid Mix: 2 mg/mL Phosphatidyl Serine, 0.2 mg/mL DAG in 20 mM HEPES, pH 7.4, 0.3% CHAPS).
SelectScreen® Kinase Profiling Service uses XLfit from IDBS. The dose response curve is curve fit to model number 205 (sigmoidal dose-response model).

PCSK9 [3] = molecular target: T1, PCSK9; test: biochemical
Target sequence in this assay (Q8NBP7 with tags, fused parts or gaps V474I/G670E): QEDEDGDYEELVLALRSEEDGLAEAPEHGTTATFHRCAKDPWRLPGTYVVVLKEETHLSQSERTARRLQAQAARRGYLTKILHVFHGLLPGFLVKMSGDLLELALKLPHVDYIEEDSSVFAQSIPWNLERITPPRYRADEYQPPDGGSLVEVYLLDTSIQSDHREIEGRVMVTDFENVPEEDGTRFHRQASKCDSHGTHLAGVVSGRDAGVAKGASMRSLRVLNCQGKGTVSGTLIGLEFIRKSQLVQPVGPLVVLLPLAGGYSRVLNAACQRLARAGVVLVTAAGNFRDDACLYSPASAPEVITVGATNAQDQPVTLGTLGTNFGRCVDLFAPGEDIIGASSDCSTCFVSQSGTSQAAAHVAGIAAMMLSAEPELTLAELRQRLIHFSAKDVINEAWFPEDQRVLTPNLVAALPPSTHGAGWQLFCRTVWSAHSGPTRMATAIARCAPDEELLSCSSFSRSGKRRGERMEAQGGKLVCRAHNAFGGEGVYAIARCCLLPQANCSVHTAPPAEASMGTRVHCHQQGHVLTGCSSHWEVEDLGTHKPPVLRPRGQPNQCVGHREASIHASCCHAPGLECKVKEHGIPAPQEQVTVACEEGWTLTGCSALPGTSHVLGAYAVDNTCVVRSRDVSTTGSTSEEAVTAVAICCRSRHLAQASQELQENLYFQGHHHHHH

[4] = molecular target: T2, potassium ion channel hERG (human Ether-á-go-go-Related Gene) (Homo sapiens, UniProt Q12809); test: Assay 5 - hERG assay (SyncroPatch 384PE patch clamp, CHO cells); assay type: cell-based; conditions: geometric mean, CHO cells over-expressing hERG, read-out: Assay 5 (hERG Hu CHO IF EPh CR-Syncro) GMean IC50
T2 construct: expressed in transfected cells; host or cells: Chinese hamster ovary K1 (CHO)
T2 sequence (Q12809 whole entry): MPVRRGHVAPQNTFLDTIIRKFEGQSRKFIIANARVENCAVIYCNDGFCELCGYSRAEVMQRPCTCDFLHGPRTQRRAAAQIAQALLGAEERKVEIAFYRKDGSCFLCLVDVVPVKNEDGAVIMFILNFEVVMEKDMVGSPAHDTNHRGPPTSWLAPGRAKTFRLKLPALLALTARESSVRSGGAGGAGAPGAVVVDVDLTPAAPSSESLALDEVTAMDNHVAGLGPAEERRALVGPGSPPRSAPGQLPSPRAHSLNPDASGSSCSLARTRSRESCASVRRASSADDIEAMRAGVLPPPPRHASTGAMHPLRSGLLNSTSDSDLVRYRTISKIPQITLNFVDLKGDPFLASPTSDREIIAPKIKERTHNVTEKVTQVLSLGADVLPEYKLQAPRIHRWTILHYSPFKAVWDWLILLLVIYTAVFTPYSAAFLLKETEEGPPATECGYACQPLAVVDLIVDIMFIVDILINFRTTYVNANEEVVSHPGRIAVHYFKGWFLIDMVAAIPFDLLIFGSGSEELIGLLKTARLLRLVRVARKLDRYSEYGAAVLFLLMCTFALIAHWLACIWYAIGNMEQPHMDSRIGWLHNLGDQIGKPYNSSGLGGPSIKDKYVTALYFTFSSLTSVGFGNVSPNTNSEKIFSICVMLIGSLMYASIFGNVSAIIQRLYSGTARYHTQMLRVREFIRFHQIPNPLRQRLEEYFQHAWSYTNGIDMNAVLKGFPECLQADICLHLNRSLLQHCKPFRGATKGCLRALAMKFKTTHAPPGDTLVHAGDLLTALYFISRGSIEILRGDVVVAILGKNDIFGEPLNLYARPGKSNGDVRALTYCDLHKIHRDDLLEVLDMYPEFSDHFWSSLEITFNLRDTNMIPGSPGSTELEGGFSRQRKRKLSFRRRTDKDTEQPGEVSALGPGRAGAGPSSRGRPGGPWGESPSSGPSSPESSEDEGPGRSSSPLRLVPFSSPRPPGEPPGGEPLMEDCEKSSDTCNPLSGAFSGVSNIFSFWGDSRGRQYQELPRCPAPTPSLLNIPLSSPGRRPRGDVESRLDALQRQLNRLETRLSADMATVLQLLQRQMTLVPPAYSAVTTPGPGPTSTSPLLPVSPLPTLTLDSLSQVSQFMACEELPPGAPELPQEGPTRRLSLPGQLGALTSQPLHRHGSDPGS
Protocol: Assay 5—hERG Assay (Human Ether-á-go-go-Related Gene)
This assay (human Ether-á-go-go-Related Gene) measures activity of the compounds at the potassium ion channel hERG (human Ether-á-go-go-Related Gene).
Experiments were performed on the SyncroPatch 384PE high throughput patch clamp platform at room temperature and medium resistance chips with 4 patch holes per site. Chinese hamster ovary K1 (CHO) cell lines over-expressing the ion channel of choice (hERG) were used in assay-ready format and kept in liquid nitrogen or were used from live culture. Cells were either thawed and diluted in HBSS or were detached from flasks and resuspended in HBSS. HBSS comprised 140 mM NaCl, 4 mM KCl, 10 mM HEPES and 5 mM Glucose (pH 7.4). The internal patch clamp solution was KF 120 mM, KCl 20 mM, HEPES 10 mM, EGTA 10 mM, and 25 μM Escin (pH 7.2). After the sealing process was complete, the external solution was exchanged for external patch clamp solution comprising NaCl 80 mM, KCl 4 mM, HEPES 10 mM, CaCl2 2 mM, MgCl2 1 mM, glucose 5 mM, and NMDG 60 mM (pH 7.4). All solutions were stored at room temperature, except Escin, which was stored at 4° C. All test compounds were dispensed in greiner-bio 384 well plates and tested in a 6 point cumulative assay (final DMSO concentration 0.33%). Only wells that passed previously agreed acceptance criteria for this platform were used in this analysis (30 MegaOhm seal resistance, Z prime>0.4 and current size>0.2 nA).

Chain of GSK3b (Glycogen synthase kinase-3 beta) (P49841 whole entry): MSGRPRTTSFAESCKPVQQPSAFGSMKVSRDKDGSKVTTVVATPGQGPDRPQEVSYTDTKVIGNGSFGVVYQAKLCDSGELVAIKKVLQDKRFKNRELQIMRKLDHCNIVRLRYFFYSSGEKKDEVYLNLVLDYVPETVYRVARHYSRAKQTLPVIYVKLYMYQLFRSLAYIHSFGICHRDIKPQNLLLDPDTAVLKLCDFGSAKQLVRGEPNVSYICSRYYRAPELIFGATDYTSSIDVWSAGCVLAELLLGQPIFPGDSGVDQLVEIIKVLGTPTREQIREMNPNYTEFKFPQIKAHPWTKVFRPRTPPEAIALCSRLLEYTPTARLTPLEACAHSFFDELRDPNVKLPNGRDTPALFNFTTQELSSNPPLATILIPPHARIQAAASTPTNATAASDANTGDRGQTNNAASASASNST

Compound | IC50 (PCSK9 [1]) | IC50 [2] | IC50 (PCSK9 [3]) | IC50 [4]
O=c1ccccn1-c1ccc(N[C@H]2CC[C@H](Nc3nc4cc(Br)cnc4s3)C2)nc1 [Compound 87, 6′-(((1S,3S)-3-((6-Bromothiazolo[5,4-b]pyridin-2-yl)amino)cyclopentyl)amino)-2H-[1,3′-bipyridin]-2-one] | 410 nM | 6.74 µM | 1.4 nM | 4310 nM
N#Cc1ccc2nc(N[C@H]3CC[C@H](Nc4ccc(-n5ccccc5=O)cn4)C3)oc2c1 [Example 5, 2-(((1S,3S)-3-((2-Oxo-2H-[1,3′-bipyridin]-6′-yl)amino)cyclopentyl)amino)benzo[d]oxazole-6-carbonitrile] | 1720 nM | 5.52 µM | 8.9 nM | 6000 nM
O=c1ccc(Cl)cn1-c1ccc(N[C@H]2CC[C@H](Nc3nc4cccnc4o3)C2)nc1 [Example 13, 5-Chloro-6′-(((1S,3S)-3-(oxazolo[5,4-b]pyridin-2-ylamino)cyclopentyl)amino)-2H-[1,3′-bipyridin]-2-one] | 1600 nM | > 10 µM | 13.3 nM | 27800 nM
COc1ccc(=O)n(-c2ccc(N[C@H]3CC[C@H](Nc4nc5cccnc5o4)C3)nc2)c1 [Example 14, 5-Methoxy-6′-(((1S,3S)-3-(oxazolo[5,4-b]pyridin-2-ylamino)cyclopentyl)amino)-2H-[1,3′-bipyridin]-2-one] | 632 nM | 0.423 µM | 25.5 nM | > 40000 nM
O=c1c(Cl)cccn1-c1ccc(N[C@H]2CC[C@H](Nc3nc4cccnc4o3)C2)nc1 [Example 16, 3-Chloro-6′-(((1S,3S)-3-(oxazolo[5,4-b]pyridin-2-ylamino)cyclopentyl)amino)-2H-[1,3′-bipyridin]-2-one] | 81 nM | > 10 µM | 1.6 nM | 28400 nM
Cc1cccn(-c2ccc(N[C@H]3CC[C@H](Nc4nc5cccnc5s4)C3)nc2)c1=O [Example 22, 3-Methyl-6′-(((1S,3S)-3-(thiazolo[5,4-b]pyridin-2-ylamino)cyclopentyl)amino)-2H-[1,3′-bipyridin]-2-one] | 54 nM | > 10 µM | 1.2 nM | 25700 nM
N#Cc1cccn(-c2ccc(N[C@H]3CC[C@H](Nc4nc5cccnc5s4)C3)nc2)c1=O [Example 23, 2-Oxo-6′-(((1S,3S)-3-(thiazolo[5,4-b]pyridin-2-ylamino)cyclopentyl)amino)-2H-[1,3′-bipyridine]-3-carbonitrile] | 92 nM | > 10 µM | 1.2 nM | 24600 nM
N#Cc1ccc(=O)n(-c2ccc(N[C@H]3CC[C@H](Nc4nc5cccnc5s4)C3)nc2)c1 [Example 26, 2-Oxo-6′-(((1S,3S)-3-(thiazolo[5,4-b]pyridin-2-ylamino)cyclopentyl)amino)-2H-[1,3′-bipyridine]-5-carbonitrile] | 168 nM | > 10 µM | 6.8 nM | 19700 nM
O=c1cccnn1-c1ccc(N[C@H]2CC[C@H](Nc3nc4cccnc4[nH]3)C2)nc1 [Example 28, 2-(6-(((1S,3S)-3-((3H-Imidazo[4,5-b]pyridin-2-yl)amino)cyclopentyl)amino)pyridin-3-yl)pyridazin-3(2H)-one] | 173 nM | > 10 µM | 5.7 nM | > 40000 nM
O=c1ccncn1-c1ccc(N[C@H]2CC[C@H](Nc3nc4cccnc4[nH]3)C2)nc1 [Example 29, 3-(6-(((1S,3S)-3-((3H-Imidazo[4,5-b]pyridin-2-yl)amino)cyclopentyl)amino)pyridin-3-yl)pyrimidin-4(3H)-one] | 68 nM | > 10 µM | 5.7 nM | > 40000 nM
O=c1[nH]c2ccccc2n1-c1ccc(N[C@H]2CC[C@H](Nc3nc4cccnc4[nH]3)C2)nc1 [Example 35, 1-(6-(((1S,3S)-3-((3H-Imidazo[4,5-b]pyridin-2-yl)amino)cyclopentyl)amino)pyridin-3-yl)-1,3-dihydro-2H-benzo[d]imidazol-2-one] | 108 nM | 7.61 µM | 0.7 nM | 27400 nM
Cn1c(=O)n(-c2ccc(N[C@H]3CC[C@H](Nc4nc5cccnc5[nH]4)C3)nc2)c2ccccc21 [Example 36, 1-(6-(((1S,3S)-3-((3H-Imidazo[4,5-b]pyridin-2-yl)amino)cyclopentyl)amino)pyridin-3-yl)-3-methyl-1,3-dihydro-2H-benzo[d]imidazol-2-one] | 60 nM | > 10 µM | 0.6 nM | 25800 nM
CN1CC(=O)N(c2ccc(N[C@H]3CC[C@H](Nc4nc5cccnc5[nH]4)C3)nc2)C1=O [Example 38, 3-(6-(((1S,3S)-3-((3H-Imidazo[4,5-b]pyridin-2-yl)amino)cyclopentyl)amino)pyridin-3-yl)-1-methylimidazolidine-2,4-dione] | 158 nM | > 10 µM | 5.7 nM | > 40000 nM
O=C1CN(c2ccc(N[C@H]3CC[C@H](Nc4nc5cccnc5[nH]4)C3)nc2)C(=O)N1 [Example 65, 1-(6-(((1S,3S)-3-((3H-Imidazo[4,5-b]pyridin-2-yl)amino)cyclopentyl)amino)pyridin-3-yl)imidazolidine-2,4-dione] |  | 8.19 µM | 7.8 nM | > 40000 nM
COc1ccccc1-c1ccc(N[C@H]2CC[C@H](Nc3nc4cccnc4[nH]3)C2)nc1 [Example 66, (1S,3S)—N^1-(3H-Imidazo[4,5-b]pyridin-2-yl)-N^3-(5-(2-methoxyphenyl)pyridin-2-yl)cyclopentane-1,3-diamine] |  | > 10 µM | 166 nM | 1940 nM
Fc1ccccc1-c1ccc(N[C@H]2CC[C@H](Nc3nc4cccnc4[nH]3)C2)nc1 [Example 69, (1S,3S)—N^1-(5-(2-Fluorophenyl)pyridin-2-yl)-N^3-(3H-imidazo[4,5-b]pyridin-2-yl)cyclopentane-1,3-diamine] |  | > 10 µM | 83 nM | 1170 nM
O=c1ccccn1-c1ccc(N[C@H]2CC[C@H](Nc3nc4cccnc4[nH]3)C2)cc1 [Example 74, 1-(4-(((1S,3S)-3-((3H-Imidazo[4,5-b]pyridin-2-yl)amino)cyclopentyl)amino)phenyl)pyridin-2(1H)-one] |  | > 10 µM | 173 nM | > 40000 nM
Cn1cccc(-c2cnc(N[C@H]3CC[C@H](Nc4nc5cccnc5[nH]4)C3)cn2)c1=O [Example 75, 3-(5-(((1S,3S)-3-((3H-Imidazo[4,5-b]pyridin-2-yl)amino)cyclopentyl)amino)pyrazin-2-yl)-1-methylpyridin-2(1H)-one] |  | > 10 µM | 16.8 nM | > 40000 nM
O=c1ccccn1-c1ccc(N[C@H]2CC[C@H](Nc3nc4cc(CO)ccc4s3)C2)nc1 [Example 84, 6′-(((1S,3S)-3-((5-(Hydroxymethyl)benzo[d]thiazol-2-yl)amino)cyclopentyl)amino)-2H-[1,3′-bipyridin]-2-one] |  | > 10 µM | 239 nM | > 40100 nM
O=c1ccc(-c2nn[nH]n2)cn1-c1ccc(N[C@H]2CC[C@H](Nc3nc4cccnc4[nH]3)C2)nc1 [Example 86, 6′-(((1S,3S)-3-((3H-Imidazo[4,5-b]pyridin-2-yl)amino)cyclopentyl)amino)-5-(2H-tetrazol-5-yl)-2H-[1,3′-bipyridin]-2-one] | 187 nM |  | 3.5 nM | 

Reference: patent publication US20240239767A1 (AstraZeneca AB, priority 2022, published 2024)
